Assay results as given in patent publication US6887878B2, “KMST isoeugenol derivatives and pharmaceutical activity” (Ing-Jun Chen, priority 2003, dated 2005).
Several values for one entry are separate records, joined by “and”; a condition that tells them apart may be missing. Equal entries are not always repeated.

Key:
[1] = target: T1, β1-adrenoceptor (Rattus norvegicus, UniProt P18090); assay: isoprenaline-induced positive inotropic effects in electrically stimulated rat left atria (pA2); set-up: species or system Wistar rat; settings: Schild plot, mean ± SEM of eight, listed as KMST
T1 construct: Left atria were dissected from the hearts and mounted in a 10 ml organ bath; from tissue; host or cells: rat left atria, electrically driven
T1 sequence (P18090 whole entry): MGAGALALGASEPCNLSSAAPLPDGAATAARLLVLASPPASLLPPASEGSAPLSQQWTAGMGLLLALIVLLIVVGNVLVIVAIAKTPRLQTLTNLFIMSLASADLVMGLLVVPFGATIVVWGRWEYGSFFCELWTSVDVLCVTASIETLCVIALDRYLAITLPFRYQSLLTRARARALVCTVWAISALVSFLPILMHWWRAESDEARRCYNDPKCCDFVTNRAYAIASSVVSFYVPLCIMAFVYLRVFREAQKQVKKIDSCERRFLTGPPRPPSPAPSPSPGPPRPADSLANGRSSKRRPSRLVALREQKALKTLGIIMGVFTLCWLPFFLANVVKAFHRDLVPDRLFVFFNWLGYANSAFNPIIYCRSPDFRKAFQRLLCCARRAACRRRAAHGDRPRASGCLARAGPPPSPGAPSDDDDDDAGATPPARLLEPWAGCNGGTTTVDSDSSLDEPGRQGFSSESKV
Procedure: Rats of either sex weighing 350-500 g were sacrificed after mild anesthesia with ether, and their hearts were quickly excised. Left atria were dissected from the hearts and mounted in a 10 ml organ bath with one end fixed and the other end connected to a force displacement transducer (Grass, Model FT03). […] Atria were pre-stretched to a baseline tension of 0.5 g and equilibrated for 60 min in an aerated Krebs solution before starting experimental protocols. Atria were driven at 2-s intervals via two platinum electrodes on each side. An incubation time of 30 min was allowed for the test compound.

[2] = target: 5-HT2A receptor (Rattus norvegicus, UniProt P14842); assay: 5-HT-induced contraction in isolated rat thoracic aorta (pA2); set-up: Rat thoracic aorta was removed, cleaned of adhering fat and connective tissue; from tissue; host or cells: Wistar rat thoracic aorta rings; species or system Wistar rat; settings: Schild plot, mean ± SEM of eight, listed as KMST
Sequence of 5-HT2A receptor (P14842 whole entry): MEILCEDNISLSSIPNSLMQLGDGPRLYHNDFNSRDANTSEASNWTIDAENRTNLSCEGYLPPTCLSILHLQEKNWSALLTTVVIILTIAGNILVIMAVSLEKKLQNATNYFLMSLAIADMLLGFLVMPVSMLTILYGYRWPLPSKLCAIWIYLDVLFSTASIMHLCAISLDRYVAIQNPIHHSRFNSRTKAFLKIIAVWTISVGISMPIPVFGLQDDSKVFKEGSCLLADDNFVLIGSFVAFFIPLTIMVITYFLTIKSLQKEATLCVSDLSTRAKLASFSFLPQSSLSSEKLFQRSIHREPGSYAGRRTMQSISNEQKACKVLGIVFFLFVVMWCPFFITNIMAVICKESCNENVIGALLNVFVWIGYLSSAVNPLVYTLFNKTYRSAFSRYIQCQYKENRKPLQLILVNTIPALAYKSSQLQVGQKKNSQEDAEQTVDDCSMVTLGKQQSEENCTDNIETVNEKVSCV
Procedure: Clonidine, noradrenaline and serotonin (10^−8˜10^−4 M) were added to the bath to induce contractions after pretreatment with KMST for 15 min.

## CC=Cc1ccc(OCC(O)CN2CCN(c3cccc(Cl)c3)CC2)c(OC)c1 (centres unmarked) [Compound 1]
[1]
  β1 pA2 value: 6.66±0.17 and 6.66
[2]
  5-HT2A pA2 value: 8.68±0.12
